Series [1] has as its target T1, MsVps4ΔMIT (Metallosphaera sedula, UniProt A4YHC5).
T1 construct: gene Msed_1672
Description: ITC. In kind it is binding.

For series [2], the target named is T1, MsVps4ΔMIT. Description: ITC, two-site model. The format is binding.
Series [3] deals with the molecule itself. In words: SEC; Superose 6; hVPS4B E235Q and mutants of it at 100 µM with 1 mM ATP and 5 mM MgCl2.

T1 sequence (A4YHC5 entry or part of it, stated change not applied): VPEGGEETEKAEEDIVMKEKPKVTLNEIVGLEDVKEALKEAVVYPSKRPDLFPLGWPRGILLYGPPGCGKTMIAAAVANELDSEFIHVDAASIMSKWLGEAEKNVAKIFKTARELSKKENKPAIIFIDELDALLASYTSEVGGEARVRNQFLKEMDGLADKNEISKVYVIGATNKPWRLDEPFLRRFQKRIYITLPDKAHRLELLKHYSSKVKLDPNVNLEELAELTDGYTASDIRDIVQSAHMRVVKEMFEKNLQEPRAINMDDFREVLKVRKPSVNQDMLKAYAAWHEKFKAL

For the molecule `Nc1ncnc2c1ncn2[C@@H]1O[C@H](COP(=O)(O)OP(=O)(O)OP(=O)(O)O)[C@@H](O)[C@H]1O` [ATP], the Kd on MsVps4ΔMIT [1] was found to be 3.3 µM.

`Nc1ncnc2c1ncn2[C@@H]1O[C@H](COP(=O)(O)OP(=O)(O)O)[C@@H](O)[C@H]1O` [ADP] had a Kd at MsVps4ΔMIT [2] of 0.4 µM.

B1: hVPS4B E235Q Ile124Glu (enzyme, human, UniProt O75351 1-444, looked up)
chain: MSSTSPNLQKAIDLASKAAQEDKAGNYEEALQLYQHAVQYFLHVVKYEAQGDKAKQSIRAKCTEYLDRAEKLKEYLKNKEKKAQKPVKEGQPSPADEKGNDSDGEGESDDPEKKKLQNQLQGAEVIERPNVKWSDVAGLEGAKEALKEAVILPIKFPHLFTGKRTPWRGILLFGPPGTGKSYLAKAVATEANNSTFFSISSSDLVSKWLGESEKLVKNLFQLARENKPSIIFIDQIDSLCGSRSENESEAARRIKTEFLVQMQGVGVDNDGILVLGATNIPWVLDSAIRRRFEKRIYIPLPEPHARAAMFKLHLGTTQNSLTEADFRELGRKTDGYSGADISIIVRDALMQPVRKVQSATHFKKVRGPSRADPNHLVDDLLTPCSPGDPGAIEMTWMDVPGDKLLEPVVSMSDMLRSLSNTKPTVNEHDLLKLKKFTEDFGQEG
For the molecule B1, the “stoichiometry N” value in series [3] amounted to 6.
